Here are results for two compounds from US10420798B2, “Method for treating lung injury and/or diseases related to lung injury” (TAIWAN MITOCHONDRION APPLIED TECHNOLOGY CO., LTD, priority 2014, dated 2019).

Assay [1] concerns rat model of acute respiratory distress syndrome. In words: immunostaining of lung sections for F4/80, γ-H2AX, Cx43, heme oxygenase-1. Format: in vivo. The conditions noted are these: positive cells per HPF 400×; ARDS rats. As to the method:
(§1) A total of forty (40) specific pathogen free (SPF) adult male SD rats, each weighing 350-400 g (Charles River Technology, BioLASCO Biotechnology Co., Ltd., Taiwan) were used in the examples. The SD rats were randomly divided into 5 groups: the first group was the normal control group; the second group was the rat model of acute respiratory distress syndrome; the third group was the rat model of acute respiratory distress syndrome intraperitoneally injected with melatonin, with each dose of 50 mg per kilogram, at the 6th and the 24th hour after breathing pure oxygen; the fourth group was the rat model of acute respiratory distress syndrome intravenously injected mitochondria, with a dose of 1500 μg per rat, at the 6th hour after breathing pure oxygen; the fifth group was the rat model of acute respiratory distress syndrome administered melatonin and mitochondria in the same manners, frequency, and doses as those of the third group and the fourth group, respectively.
The paraffin sections of the lung tissue of each group were rehydrated with 3% hydrogen peroxide for 30 minutes, followed by the addition of a high-performance Immuno-Block reagent (BioSB) at room temperature for 30 minutes. The sections were then treated with the specific primary antibody of the following proteins, respectively: F4/80 (1:100, Abcam), γ-H2AX (1:500, Abcam), heme oxygenase-1 (HO-1; 1:2000, Abcam), and Cx43. Immunohistochemical staining was performed on the sections of the lung tissue of each group to observe the expression of F4/80, γ-H2AX, heme oxygenase-1, and Cx43 in cells. In addition, the expression of the proteins mentioned above in the lung tissue sections of each group was quantified, and the results are shown in FIG. 20 to FIG. 23. The red fluorescence represents the exogenous mitochondria labeled by mito-tracker, and the green fluorescent represents the mitochondria within the lungs. […]

Assay [2] shares this test system. In words: MPO+, CD40+, CD11b/c+ cells in BAL fluid by flow cytometry. Format: in vivo. The conditions noted are these: ARDS rats; doses of Example 5. As to the method: as §1
(§2) BAL fluid was obtained from rats in each group by bronchoalveolar lavage (BAL). SDS-PAGE and Coomassie Blue staining were used to detect the concentration of albumin in the BAL fluid of each group, and the results are shown in FIG. 11. Furthermore, the number of MPO+, CD40+, and CD11b/c+ cells in the BAL fluid of each group was calculated by flow cytometry.
A general note: In flow cytometry, cells or beads pass a laser one at a time.

Assay [3] has the same test system. In words: western blotting / Oxyblot of lung parenchyma protein extracts. Format: in vivo.
Source text: (§3) The term “protein oxidation detection kit” disclosed in the present invention refers to methods for detecting protein oxidation in cells. For example, the Oxyblot Oxidized Protein Detection Kit S7150 (Chemicon) used in the examples of the present invention detects oxidized proteins by labeling oxidized proteins in a sample with 2,4-dinitrophenylhydrazine (DNPH), separating proteins in the sample with 12% SDS polyacrylamide gel electrophoresis, transferring the separated proteins onto a transfer membrane, such as a nitrocellulose membrane, immersing the transfer membrane in buffer containing anti-DNP primary antibody (1:150) for about 2 hours, then immersing the transfer membrane in buffer containing secondary antibody (1:300) at room temperature for about an hour, and then observing expression of oxidized proteins in the sample.
as §1
The protein extracts of the left lungs of rats in each group were prepared. The same amount (10 to 30 μg) of protein extracts of rats in each group was detected by western blotting and Oxyblot Oxidized Protein Detection Kit S7150, Chemicon, respectively. The results were observed by enhanced chemiluminescence (ECL, Amersham Biosciences), and the performance of each protein was quantified by software (Labwork software, UVP).
Specifically, the procedure and conditions of western blotting were as follows: Proteins were separated by SDS gel electrophoresis with a gradient of 8-10% polyacrylamide solution. The blocking agent used was a T-TBS solution containing 5% skimmed milk powder and 0.05% Tween. Primary antibodies were against the following proteins respectively: NOX-1 (1:1500, Sigma), NOX-2 (1:750, Sigma), NOX-4 (1:1000, Abcam), or interacted with polyclonal antibodies that were against the following proteins: tumor necrosis factor α (1:1000, Cell Signaling), nuclear factor κB (1:250, Abcam), matrix metalloproteinase 9 (1:3000, Abcam), transforming growth factor β (1:1000, Abcam), Smad3 (1:500, Cell Signaling), bone morphogenetic protein-2 (1:100, Abcam), Smad 1/5 (1:500, Cell Signaling), GR (1:1000, Abcam), GPx (1:1000, Abcam), Cytochrome C (1:2000, BD), NQO 1 (NAD(P)H: quinone oxidoreductase 1; 1:1000, Abcam), Heme oxygenase-1 (1:250, Abcam), caspases 3 (1:1000, Cell Signaling), and PARP (poly (ADP-ribose) polymerase; 1:1000, Cell Signaling). Secondary antibodies conjugated to HRP enzymatic fluorescence are goat antibody against mouse IgG, goat antibody against rat IgG, or goat antibody against rabbit IgG.
(In western blotting, separated proteins are transferred to a membrane and probed.)

For assay [4] the test system is unchanged. Kind of assay: arterial oxygen saturation in rat model of acute respiratory distress syndrome. The assay is classed as in vivo. The conditions noted are these: ARDS rats; melatonin 50 mg/kg i.p. at 6th and 24th hour; mitochondria 1500 μg per rat i.v. at 6th hour. Here is the method:
as §1
Rats in each group in Example 5 were anesthetized. Arterial blood was taken from the carotid arteries of rats in each group, and the oxygen saturation of the blood samples was analyzed.
The rat model of acute respiratory distress syndrome was divided into two groups. One group was given 750 μg of mitochondria per rat, and the other group was given 1500 μg of mitochondria per rat. […]

For assay [5] the test system is unchanged. In words: lung sections: immunofluorescence and transmission electron microscopy of mitochondria. Format: in vivo. The conditions noted are these: compared with second group (ARDS). Here is the method: as §1
The left lungs of rats in each group were inflated with constant airway pressure (15-20 mmHg) and embedded with OCT (Tissue-Tek) for immunohistochemical staining. The right lungs of rats in each group were fixed with 4% paraformaldehyde and 0.1% glutaraldehyde phosphate buffer solution, then embedded in paraffin, and stained with hematoxylin and eosin. […]

For assay [6] the test system is unchanged. In words: right ventricular systolic pressure in rat model of acute respiratory distress syndrome. The assay is classed as in vivo. The conditions noted are these: ARDS rats; melatonin 50 mg/kg i.p. at 6th and 24th hour; mitochondria 1500 μg per rat i.v. at 6th hour. As to the method:
(§4) A total of forty (40) specific pathogen free (SPF) adult male SD rats, each weighing 350-400 g (Charles River Technology, BioLASCO Biotechnology Co., Ltd., Taiwan) were used in the examples. […]
Then, rats in each group were provided air with positive pressure ventilation (180 ml per minute) using small animal ventilators (SAR-830/A, CWE, Inc., USA) and intubation. […] Signals of right ventricular systolic pressure were measured with a pressure transducer (UFI, model 1050, CA, USA) and transmitted to bridge amplifiers (ML866 PowerLab 4/30 Data Acquisition Systems. ADlnstruments Pty Ltd., Castle Hill, NSW, Australia) to obtain the right ventricular systolic pressure of rats in each group as a reference for pulmonary hypertension. In addition, femoral artery systolic blood pressure of rats in each group was measured. The right ventricular systolic pressure and the femoral artery systolic blood pressure were analyzed by software (Labchart, ADlnstrument). […]

The test system is the same in assay [7]. Kind of assay: albumin in BAL fluid (SDS-PAGE, Coomassie Blue). Format: in vivo. The conditions noted are these: ARDS rats; doses of Example 5. Here is the method:
as §1, §2

Assay [8] shares this test system. Kind of assay: lung histology (hematoxylin and eosin): alveolar sacs and crowded area. The assay is classed as in vivo. The conditions noted are these: per high power field 100×; ARDS rats; doses of Example 5.
Source text: as §4
The integral of the crowded area in the lung tissue of rats in each group was further calculated by the following criteria: 0 represents no overlap; 1 represents less than 15% of crowded area in each of the high magnification fields; 2 represents 15-25% of crowded area in each of the high magnification fields; 3 represents 25-50% of crowded area in each of the high magnification fields; 4 represents 50-75% of crowded area in each of the high magnification fields; 5 represents 75-100% of crowded area in each of the high magnification fields. […]

Assay [9] concerns human umbilical vein endothelial cells. Kind of assay: intracellular protein oxidation (Oxyblot) under menadione oxidative stress. The conditions noted are these: after 0.5 hours and 6 hours of treatment; mitochondria after menadione vs menadione only; menadione vs untreated. Format: cell-based.
Source text: as §3
Human umbilical vein endothelial cells were divided into three groups. The human umbilical vein endothelial cells of the first group remained untreated. […] Protein oxidation in each group was detected after 0.5 hours and 6 hours of treatment with a commercially available protein oxidation assay kit (Oxyblot Oxidized Protein Detection Kit S7150, Chemicon), and oxidative stress in cells of each group was further analyzed with a software (Labwork software, UVP).

For `COc1ccc2[nH]cc(CCNC(C)=O)c2c1` [melatonin], in assay [1], the “expression of F4/80 in lung sections” value is “significantly lower than the fourth group”, the “expression of heme oxygenase-1 in lung sections” value was “significantly higher then the second group” and the “expression of γ-H2AX in lung sections” value is listed as “significantly lower than the fourth group”. Besides, the “number of inflammatory cells (MPO+, CD40+, CD11b/c+) in BAL fluid” value in assay [2] was “significantly lower than those in the second group”. In addition, in assay [3] (Oxyblot), the “oxidative stress (oxidized proteins)” value is “significantly lower than that of the second and fourth groups”. Besides, in [3] (western blot), the “expression level of GPx” value is “significantly higher than those of the second and fourth groups”; the “expression level of GR” value is “significantly higher than those of the second and fourth groups”; the “expression level of Heme oxygenase-1” value is “significantly higher than those of the second and fourth groups”; the “expression level of NOX-1” value is “significantly lower than those of the second and fourth groups”. In addition, in assay [3] (western blot), the “expression level of NOX-2” value was “significantly lower than those of the second and fourth groups”; the “expression level of NOX-4” value is “significantly lower than those of the second and fourth groups”; the “expression level of NQO 1” value was “significantly higher than those of the second and fourth groups”; the “expression level of Smad3” value is “significantly lower than those of the second and fourth groups”. Further, in assay [3] (western blot), the “expression level of activated PARP” value is “significantly lower than those of the second and fourth groups”; the “expression level of activated caspase-3” value is “significantly lower than those of the second and fourth groups”; the “expression level of cytochrome c (cytosol)” value is “significantly lower than those of the second and fourth groups”; the “expression level of matrix metalloproteinase 9” value was “significantly lower than those of the second and fourth groups”. In addition, in assay [3] (western blot), the “expression level of nuclear factor κB” value was “significantly lower than those of the second and fourth groups”; the “expression level of transforming growth factor β” value is “significantly lower than those of the second and fourth groups”; the “expression level of tumor necrosis factor α” value was “significantly lower than those of the second and fourth groups”. Also, in assay [4], the “oxygen saturation (group comparison)” value was “significantly higher than that of the fourth group”. The “mitochondrial morphology in lung tissue (size, cristae; TEM)” value in assay [5] was “smaller, and there are cristae in the mitochondrial inner membranes”. Further, the “right ventricular systolic pressure (group comparison)” value in [6] is recorded as “significantly reduced”. Also, the “albumin concentration in BAL fluid” value in assay [7] is listed as “significantly lower than those in the second group”. Also, the “number of alveolar sacs” value in assay [8] is “significantly higher than that in the second group”.
As for `CC1=CC(=O)c2ccccc2C1=O` [menadione], the “protein oxidation in cells” value in assay [9] is recorded as “increased significantly”.
